The record followed here is patent publication US7951956B2, “Benzoimidazole compound capable of inhibiting prostaglandin D synthetase” (Taiho Pharmaceuticals Co., Ltd., priority 2005, dated 2011).

Structures are written as SMILES. Some results are limits rather than exact numbers.

human hematopoietic synthase, sequence (O60760 whole entry): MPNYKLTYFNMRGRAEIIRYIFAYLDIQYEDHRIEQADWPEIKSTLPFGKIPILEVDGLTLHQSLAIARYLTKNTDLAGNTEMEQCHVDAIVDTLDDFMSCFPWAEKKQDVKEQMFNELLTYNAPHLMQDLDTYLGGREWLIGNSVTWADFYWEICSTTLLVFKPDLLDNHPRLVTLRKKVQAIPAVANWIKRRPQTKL

The test addresses human hematopoietic synthase (Homo sapiens, UniProt O60760). The test is described as follows: Hematopoietic synthase inhibitory activity (Experiment 1). The class given is biochemical. The following applies: [14C] prostaglandin H2 10 μM, preincubated at 25° C. for 5 minutes, 1 minute reaction; read-out: Concentration of Pharmaceutical Compound Required to Inhibit 50% of Hematopoietic Synthase. As for the experimental part:
Experiment 1 was carried out according to the method of Urade, Y. et al. (J. Biol. Chem. 262, 3820-3825, (1987)). More specifically, the reaction mixture (49 μL); 100 mM Tris-HCl (pH 8.0), 1 mM reduced glutathione, 0.1 mg/mL γ-globulin, and human hematopoietic synthase (quantum sufficient), and a test compound (final concentration: 0.01-100 μM) were preincubated at 25° C. for 5 minutes. In place of the test compound, a DMSO solution (final concentration: 1%) was used in the solvent control group (Control Group). Subsequently, 1 μL of [^14C] prostaglandin H2 (final concentration: 10 μM) was added to start the reaction. One minute after the start of the reaction, 250 μL of a reaction stopper solution (diethylether/methanol/1M citric acid (30/4/1) cooled to −20° C. was added to stop the reaction.
Thereafter, 50 μL of the upper layer portion (organic solvent phase) was applied to a TLC plate and developed at −20° C. for 45 minutes (developer: diethylether/methanol/acetic acid (capacity ratio=90/2/1)). After drying the plate, the plate was exposed to an imaging plate for 1 to 24 hours, and the radioactivity corresponding to prostaglandin D2 was analyzed using an image analyzer (product of FUJIFILM Corporation). The area (%) occupied by the prostaglandin D2 band per lane was calculated, and the concentration of the test compound required to inhibit 50% of the hematopoietic synthase (IC50 value) was calculated by comparison with the Control group in each experiment.
`CCOC(=O)c1[nH]c(C)c(-c2nc3cc(Sc4ccncc4)c(Oc4ccccc4)cc3[nH]2)c1C` [Comparative Example 1, 4-(5-(4-Pyridylsulfenyl)-6-phenoxybenzimidazole-2-yl)-3,5-dimethylpyrrole-2-carboxylic acid ethyl ester, reference compound]: the IC50 is above 30000 nM.

On to `Cc1[nH]c(C(=O)N(C)C)c(C)c1-c1nc2cc(Sc3ccncc3)c(Oc3ccccc3)cc2[nH]1` [Comparative Example 2, (N,N-Dimethyl)-4-(5-(4-pyridylsulfenyl)-6-phenoxybenzimidazole-2-yl)-3,5-dimethylpyrrole-2-carboxamide, reference compound], for which the IC50 was above 30000 nM.

Take `O=C(c1ccccc1)c1ccc2[nH]c(-c3ccc(P(=O)(O)O)o3)nc2c1` [Comparative Example 3, 5-Benzophenone-2-(2-phosphono-5-furanyl)benzimidazole dihydrate, reference compound]: the IC50 amounted to 29300 nM.

For `Cc1oc(C(=O)NCc2ccc3c(c2)OCO3)c(C)c1-c1nc2cc(C(=O)c3ccccc3)ccc2[nH]1` [Compound 4, N-(3,4-Methylenedioxyphenyl)methyl-4-(5-benzoylbenzimidazol-2-yl)-3,5-dimethylfuran-2-carboxamide], the IC50 is 278 nM.

Regarding `Cc1[nH]c(C(=O)O)c(C)c1-c1nc2cc(C(=O)c3ccccc3)ccc2[nH]1` [Compound 10, 4-(5-Benzoylbenzimidazol-2-yl)-3,5-dimethylpyrrole-2-carboxylic acid], the IC50 was determined as 436 nM.

For the compound `Cc1[nH]c(C(=O)N(C)CCN(C)C)c(C)c1-c1nc2cc(C(=O)c3ccccc3)ccc2[nH]1` [Compound 11, N-Methyl-N-(2-dimethylaminoethyl)-4-(5-benzoylbenzimidazol-2-yl)-3,5-dimethylpyrrole-2-carboxamide], the IC50 is 269 nM.

For `Cc1[nH]c(C(N)=O)c(C)c1-c1nc2cc(C(=O)c3ccccc3)ccc2[nH]1` [Compound 12, 4-(5-Benzoylbenzimidazol-2-yl)-3,5-dimethylpyrrole-2-carboxamide], the IC50 amounted to 100 nM.

On to `CONC(=O)c1[nH]c(C)c(-c2nc3cc(C(=O)c4ccccc4)ccc3[nH]2)c1C` [Compound 14, N-(Methoxy)-4-(5-benzoylbenzimidazol-2-yl)-3,5-dimethylpyrrole-2-carboxamide], for which the IC50 is 355 nM.

Turning to `COCCCNC(=O)c1[nH]c(C)c(-c2nc3cc(C(=O)c4ccccc4)ccc3[nH]2)c1C` [Compound 16, N-(3-Methoxypropyl)-4-(5-benzoylbenzimidazol-2-yl)-3,5-dimethylpyrrole-2-carboxamide], the IC50 worked out at 2280 nM.

For `Cc1[nH]c(C(=O)NCCCN(C)C)c(C)c1-c1nc2cc(C(=O)c3ccccc3)ccc2[nH]1` [Compound 17, N-(3-Dimethylaminopropyl)-4-(5-benzoylbenzimidazol-2-yl)-3,5-dimethylpyrrole-2-carboxamide], the IC50 amounted to 124 nM.

`CC(=O)NCCNC(=O)c1[nH]c(C)c(-c2nc3cc(C(=O)c4ccccc4)ccc3[nH]2)c1C` [Compound 18, N-(2-Acetamidoethyl)-4-(5-benzoylbenzimidazol-2-yl)-3,5-dimethylpyrrole-2-carboxamide]: the IC50 was 80 nM.

For the compound `CCOC(=O)CCNC(=O)c1[nH]c(C)c(-c2nc3cc(C(=O)c4ccccc4)ccc3[nH]2)c1C` [Compound 19, N-(2-Ethoxycarbonylethyl)-4-(5-benzoylbenzimidazol-2-yl)-3,5-dimethylpyrrole-2-carboxamide], the IC50 is 874 nM.

Regarding `COC(=O)CNC(=O)c1[nH]c(C)c(-c2nc3cc(C(=O)c4ccccc4)ccc3[nH]2)c1C` [Compound 20, N-(1-Methoxycarbonylmethyl)-4-(5-benzoylbenzimidazol-2-yl)-3,5-dimethylpyrrole-2-carboxamide], the IC50 came out at 871 nM.

On to `Cc1[nH]c(C(=O)NCC(=O)O)c(C)c1-c1nc2cc(C(=O)c3ccccc3)ccc2[nH]1` [Compound 22, N-(1-Carboxymethyl)-4-(5-benzoylbenzimidazol-2-yl)-3,5-dimethylpyrrole-2-carboxamide], for which the IC50 was determined as 829 nM.

In the case of `Cc1[nH]c(C(=O)NCCN2CCCC2)c(C)c1-c1nc2cc(C(=O)c3ccccc3)ccc2[nH]1` [Compound 23, N-(2-Pyrrolidine-1-yl-ethyl)-4-(5-benzoylbenzimidazol-2-yl)-3,5-dimethylpyrrole-2-carboxamide], the IC50 amounted to 223 nM.

Consider `Cc1[nH]c(C(=O)NCCN2CCCCC2)c(C)c1-c1nc2cc(C(=O)c3ccccc3)ccc2[nH]1` [Compound 24, N-(2-Piperidine-1-yl-ethyl)-4-(5-benzoylbenzimidazol-2-yl)-3,5-dimethylpyrrole-2-carboxamide], for which the IC50 worked out at 496 nM.

On to `Cc1[nH]c(C(=O)NCC2CCCCC2)c(C)c1-c1nc2cc(C(=O)c3ccccc3)ccc2[nH]1` [Compound 25, N-(Cyclohexylmethyl)-4-(5-benzoylbenzimidazol-2-yl)-3,5-dimethylpyrrole-2-carboxamide], for which the IC50 was 286 nM.

Regarding `Cc1cc(NC(=O)c2[nH]c(C)c(-c3nc4cc(C(=O)c5ccccc5)ccc4[nH]3)c2C)no1` [Compound 26, N-(5-Methylisoxazole-3-yl)-4-(5-benzoylbenzimidazol-2-yl)-3,5-dimethylpyrrole-2-carboxamide], the IC50 is 149 nM.

`Cc1[nH]c(C(=O)Nc2ccc(C#N)cc2)c(C)c1-c1nc2cc(C(=O)c3ccccc3)ccc2[nH]1` [Compound 27, N-(4-Cyanophenyl)-4-(5-benzoylbenzimidazol-2-yl)-3,5-dimethylpyrrole-2-carboxamide]: the IC50 came out at 309 nM.

Consider `Cc1[nH]c(C(=O)Nc2ccc3[nH]ccc3c2)c(C)c1-c1nc2cc(C(=O)c3ccccc3)ccc2[nH]1` [Compound 28, N-(Indole-5-yl)-4-(5-benzoylbenzimidazol-2-yl)-3,5-dimethylpyrrole-2-carboxamide], for which the IC50 was determined as 73 nM.

For the compound `Cc1[nH]c(C(=O)Nc2ccc3c(c2)OCO3)c(C)c1-c1nc2cc(C(=O)c3ccccc3)ccc2[nH]1` [Compound 29, N-(3,4-Methylenedioxyphenyl-1-yl)-4-(5-benzoylbenzimidazol-2-yl)-3,5-dimethylpyrrole-2-carboxamide], the IC50 is 53 nM.

Turning to `Cc1[nH]c(C(=O)Nc2ccc3c(c2)CCO3)c(C)c1-c1nc2cc(C(=O)c3ccccc3)ccc2[nH]1` [Compound 30, N-(2,3-Dihydrobenzofuran-5-yl)-4-(5-benzoylbenzimidazol-2-yl)-3,5-dimethylpyrrole-2-carboxamide], the IC50 amounted to 113 nM.

Take `Cc1[nH]c(C(=O)Nc2ccc3ncsc3c2)c(C)c1-c1nc2cc(C(=O)c3ccccc3)ccc2[nH]1` [Compound 31, N-(Benzothiazole-6-yl)-4-(5-benzoylbenzimidazol-2-yl)-3,5-dimethylpyrrole-2-carboxamide]: the IC50 amounted to 90 nM.

With `Cc1[nH]c(C(=O)Nc2ccc3c(c2)OCCO3)c(C)c1-c1nc2cc(C(=O)c3ccccc3)ccc2[nH]1` [Compound 32, N-(3,4-Ethylenedioxyphenyl)-4-(5-benzoylbenzimidazol-2-yl)-3,5-dimethylpyrrole-2-carboxamide], the IC50 came out at 124 nM.

With `Cc1[nH]c(C(=O)NCCc2ccccn2)c(C)c1-c1nc2cc(C(=O)c3ccccc3)ccc2[nH]1` [Compound 34, N-(2-(2-Pyridyl)ethyl)-4-(5-benzoylbenzimidazol-2-yl)-3,5-dimethylpyrrole-2-carboxamide], the IC50 is 72 nM.

Take `Cc1[nH]c(C(=O)NCc2ccc(Cl)c(Cl)c2)c(C)c1-c1nc2cc(C(=O)c3ccccc3)ccc2[nH]1` [Compound 35, N-(3,4-Dichlorobenzyl)-4-(5-benzoylbenzimidazol-2-yl)-3,5-dimethylpyrrole-2-carboxamide]: the IC50 was found to be 746 nM.

Turning to `COc1ccc(CNC(=O)c2[nH]c(C)c(-c3nc4cc(C(=O)c5ccccc5)ccc4[nH]3)c2C)cc1OC` [Compound 36, N-(3,4-Dimethoxybenzyl)-4-(5-benzoylbenzimidazol-2-yl)-3,5-dimethylpyrrole-2-carboxamide], the IC50 is 195 nM.

With `Cc1[nH]c(C(=O)NCc2ccc3c(c2)OCO3)c(C)c1-c1nc2cc(C(=O)c3ccccc3)ccc2[nH]1` [Compound 37, N-(3,4-Methylenedioxyphenylmethyl)-4-(5-benzoylbenzimidazol-2-yl)-3,5-dimethylpyrrole-2-carboxamide], the IC50 stood at 213 nM.

Regarding `Cc1[nH]c(C(=O)NCC2=NNC(=O)CC2)c(C)c1-c1nc2cc(C(=O)c3ccccc3)ccc2[nH]1` [Compound 38, N-(2,3,4,5-Tetrahydro-3-oxo-pyridazine-6-yl-methyl)-4-(5-benzoylbenzimidazol-2-yl)-3,5-dimethylpyrrole-2-carboxamide], the IC50 amounted to 136 nM.

Turning to `Cc1[nH]c(C(=O)N2CCCC2)c(C)c1-c1nc2cc(C(=O)c3ccccc3)ccc2[nH]1` [Compound 39, ((4-(5-Benzoylbenzimidazol-2-yl)-3,5-dimethylpyrrol-2-yl)-carbonyl)pyrrolidine], the IC50 came to 351 nM.

With `Cc1[nH]c(C(=O)N2CCN(c3ccccc3)CC2)c(C)c1-c1nc2cc(C(=O)c3ccccc3)ccc2[nH]1` [Compound 41, ((4-(5-Benzoylbenzimidazol-2-yl)-3,5-dimethylpyrrol-2-yl)-carbonyl)-4-phenylpiperazine], the IC50 was determined as 1450 nM.
